Where “and” joins values, the source holds several entries; their conditions need not be identical. Equal values may be shown once.
Experiments:
Type in all cases: functional
Rattus norvegicus [1] = test: Hallucinogenic property was determined in groups of LSD trained rats and percentage of animals disrupted was reported at a dose 18.72 (umol/kg),(number of animals = 5)
Rattus norvegicus [2] = test: Hallucinogenic property was determined in groups of LSD trained rats and percentage of animals disrupted was reported at 2.34 (umol/kg),(number of animals = 13)
Rattus norvegicus [3] = test: Hallucinogenic property was determined in groups of LSD trained rats and percentage of animals disrupted was reported at a dose 9.36 (umol/kg),(number of animals = 10)
Rattus norvegicus [4] = test: Tested for stimulus generation in rats trained to discriminate LSD from saline at a dose 2.34 (umol/kg),(number of animals = 13)
Rattus norvegicus [5] = test: Tested for disruption in more than 50% rats trained to discriminate LSD from saline at a dose 18.72 (umol/kg) (no. of animals =5)
Rattus norvegicus [6] = test: Tested for stimulus generation in rats trained to discriminate LSD from saline at a dose 9.36 (umol/kg), (number of animals = 10)
Rattus norvegicus [7] = test: Tested for stimulus generation in rats trained to discriminate +/-MDMA from saline at 1.17 (umol/kg), (number of animals = 6)
Rattus norvegicus [8] = test: Hallucinogenic property was determined in groups of LSD trained rats and percentage of animals disrupted was reported at a dose 1.17 (umol/kg),(number of animals = 10)
Rattus norvegicus [9] = test: Hallucinogenic property was determined in groups of MDMA trained rats and percentage of animals disrupted was reported at a dose 2.34 (umol/kg), (number of animals = 8)
Rattus norvegicus [10] = test: Tested for stimulus generation in rats trained to discriminate +/-MDMA from saline at 2.34 (umol/kg), (number of animals = 8)
Rattus norvegicus [11] = test: Hallucinogenic property was determined in groups of LSD trained rats and percentage of animals disrupted was reported at a dose 4.68 (umol/kg),(number of animals = 10)
Rattus norvegicus [12] = test: Hallucinogenic property was determined in groups of MDMA trained rats and percentage of animals disrupted was reported at 28.08 (umol/kg),(number of animals = 4)
Rattus norvegicus [13] = test: Hallucinogenic property was determined in groups of MDMA trained rats and percentage of animals disrupted was reported at a dose 1.17 (umol/kg), (number of animals =6)
Rattus norvegicus [14] = test: Tested for stimulus generation in rats trained to discriminate LSD from saline at a dose 1.17 (umol/kg),(number of animals = 10)
Rattus norvegicus [15] = test: Tested for stimulus generation in rats trained to discriminate +/-MDMA from saline at 4.68 (umol/kg), (number of animals = 10)
Rattus norvegicus [16] = test: Hallucinogenic property was determined in groups of MDMA trained rats and percentage of animals disrupted was reported at a dose 4.68 (umol/kg), (number of animals = 10)
Rattus norvegicus [17] = test: Tested for stimulus generation in rats trained to discriminate +/-MDMA from saline at 9.36 (umol/kg), (number of animals = 9)
Rattus norvegicus [18] = test: Tested for stimulus generation in rats trained to discriminate LSD from saline at a dose 4.68 (umol/kg),(number of animals = 10)
Rattus norvegicus [19] = test: Hallucinogenic property was determined in groups of MDMA trained rats and percentage of animals disrupted was reported at 18.72 (umol/kg),(number of animals = 5)
Rattus norvegicus [20] = test: Hallucinogenic property was determined in groups of MDMA trained rats and percentage of animals disrupted was reported at a dose 9.36 (umol/kg), (number of animals = 9)
Rattus norvegicus [21] = test: Tested for stimulus generation in rats trained to discriminate +/-MDMA from saline at 18.72 (umol/kg),(number of animals = 5)
Rattus norvegicus [22] = test: Tested for stimulus generation in rats trained to discriminate LSD from saline at a dose 0.023 (umol/kg) (number of animals = 8)
Rattus norvegicus [23] = test: Hallucinogenic property was determined in groups of LSD trained rats and percentage of animals disrupted was reported at a dose 0.046(umol/kg) (number of animals = 9)
Rattus norvegicus [24] = test: Hallucinogenic property was determined in groups of LSD trained rats and percentage of animals disrupted was reported at a dose 0.012 (umol/kg),(number of animals = 8)
Rattus norvegicus [25] = test: Tested for stimulus generation in rats trained to discriminate LSD from saline at a dose 0.046(umol/kg) (number of animals = 9)
Rattus norvegicus [26] = test: Tested for stimulus generation in rats trained to discriminate LSD from saline at a dose 0.186 (umol/kg),(number of animals = 8)
Rattus norvegicus [27] = test: Tested for stimulus generation in rats trained to discriminate LSD from saline at a dose 0.012 (umol/kg),(number of animals = 8)
Rattus norvegicus [28] = test: Hallucinogenic property was determined in groups of LSD trained rats and percentage of animals disrupted was reported at 0.023 (umol/kg) (number of animals = 8)
Rattus norvegicus [29] = species on record: Rattus norvegicus; test: Inhibitory activity was determined LSD trained rats
Rattus norvegicus [30] = test: Hallucinogenic property was determined in groups of LSD trained rats and percentage of animals disrupted was reported at a dose 0.093(umol/kg) (number of animals = 8)
Rattus norvegicus [31] = test: Tested for stimulus generation in rats trained to discriminate LSD from saline at a dose 0.093(umol/kg) (number of animals = 8)
Rattus norvegicus [32] = test: Hallucinogenic property was determined in groups of LSD trained rats and percentage of animals disrupted was reported at a dose 0.186 (umol/kg),(number of animals = 8)

Compound: NC1Cc2ccc3c(c2C1)OCO3 (configuration not stated)
- D (Rattus norvegicus [1]): 100%
- D (Rattus norvegicus [2]): 44%
- D (Rattus norvegicus [3]): 20%
- SDL (Rattus norvegicus [4]): 25%
- SDL (Rattus norvegicus [5]): 0%
- SDL (Rattus norvegicus [6]): 25%
- SDL (Rattus norvegicus [7]): 0%
- D (Rattus norvegicus [8]): 20%
- D (Rattus norvegicus [9]): 13%
- SDL (Rattus norvegicus [10]): 29%
- D (Rattus norvegicus [11]): 20%
- D (Rattus norvegicus [12]): 50%
- D (Rattus norvegicus [13]): 0%
- SDL (Rattus norvegicus [14]): 38%
- SDL (Rattus norvegicus [15]): 13%
- D (Rattus norvegicus [16]): 20%
- SDL (Rattus norvegicus [17]): 25%
- SDL (Rattus norvegicus [18]): 13%
- D (Rattus norvegicus [19]): 0%
- D (Rattus norvegicus [20]): 11%
- SDL (Rattus norvegicus [21]): 0%

Compound: CCN(CC)C(=O)[C@@H]1C=C2c3cccc4[nH]cc(c34)C[C@H]2N(C)C1 [LYSERGIDE]
- SDL (Rattus norvegicus [22]): 0%
- D (Rattus norvegicus [23]): 0%
- D (Rattus norvegicus [24]): 0%
- SDL (Rattus norvegicus [25]): 44%
- SDL (Rattus norvegicus [26]): 100%
- SDL (Rattus norvegicus [27]): 13%
- D (Rattus norvegicus [28]): 0%
- ED50 (Rattus norvegicus [29]): 0.048 µM/kg and 0.021 µM/kg
- D (Rattus norvegicus [30]): 0%
- SDL (Rattus norvegicus [31]): 88%
- D (Rattus norvegicus [32]): 0%
